Assay results reported in paper PMC11352945, “Anticancer Activity of Benzo[a]phenoxazine Compounds Promoting Lysosomal Dysfunction” (Cells, 2024).

Experiments:
RKO cells [1] = experiment: Sulforhodamine B (SRB) cell viability assay, RKO; format: cell-based; details: Homo sapiens, CRC cell line, 48 h, read-out: IC50 (μM) ± SD, RKO
Protocol: The cells were allowed to adhere overnight, from 12 h to 18 h, and then treated with increasing concentrations of each compound, C9, A36, and A42 (0.125 μM, 0.25 μM, 0.5 μM, 1 μM, 2.5 μM, and 5 μM), in their respective culture mediums for 48 h. In addition to a negative control that consisted only of cells and growth medium, a negative control containing the highest concentration of the solvent in which the compound was dissolved (DMSO 0.1%) was also used. The SRB assay was performed according to Marques et al.. The IC50 values were obtained using GraphPad Prism version 8.2.1 through the application of a sigmoidal dose–response nonlinear regression, after logarithmic transformation. The selectivity index was determined by dividing the IC50 value of the non-neoplastic BJ-5ta cell line by the IC50 value of the cancer cell lines (IC50 BJ-5ta/IC50 cancer cell line); furthermore, for the CRC model, a second selectivity index was also determined using the non-neoplastic NCM460 cell line (IC50 NCM460/IC50 CRC cell line). According to the results of the selectivity index, the cell line with the highest selectivity value for each of the models, CRC and breast, was selected for subsequent characterization.
Three CRC-derived cell lines, SW480 (KRAS^G12V), HCT116 (KRAS^G13D), and RKO (BRAF^V600E), harboring somatic mutations on KRAS or BRAF, and two breast-cancer-derived cell lines, MDA-MB-231 (basal like) and MCF7 (luminal A subtype), together with two non-neoplastic cell lines, NCM460 (normal colon mucosal epithelial cell line) and BJ-5ta (normal foreskin fibroblast cell line), were used to study the activity and selectivity of the three new benzo[a]phenoxazine compounds, C9, A36, and A42. All cell lines were treated with a range of drug concentrations (0.125 μM, 0.25 μM, 0.5 μM, 1 μM, 2.5 μM, and 5 μM) for 48 h, and the effect on cell viability was assessed using a sulforhodamine B assay (SRB) (Figure 2). […] In addition, the selectivity index was determined using the BJ-5ta cell line as a reference, as well as the NCM460 cell line for the CRC model (Table 1).

MCF7 cells [2] = experiment: Wound healing assay, MCF7; format: cell-based, human; details: MCF7, IC50 and 2 × IC50, 12 h (controls approximately 12.5%)
Protocol: RKO and MCF7 cells were seeded in 12-well plates at densities of 5 × 10^5 cells/mL and 4.5 × 10^5 cells/mL, respectively. After 24 h, a wound was created by scraping the cell layer using a 1 mm pipette tip. The cells were treated with C9, A36, and A42 at IC50 and 2 × IC50 concentrations or 0.1% DMSO (vehicle). Untreated cells were used as controls. The wound regions were photographed at 0 and 12 h, and migration was assessed using the Image J software. The relative migration was calculated in relation to the untreated controls.

RKO cells [3] = experiment: Lysosomal membrane permeabilization (acridine orange, flow cytometry), RKO; format: cell-based, human; details: 4 × IC50, 48 h
Protocol: (§1) RKO and MCF7 lysosomal membrane permeabilization (LMP) was evaluated through flow cytometry using the Acridine Orange (A.O) probe. RKO and MCF7 cells were seeded in 12-well plates at a density of 1 × 10^5 cells/mL. After 24 h, the cells were treated with the compounds C9, A36, and A42 at 2 × IC50 and 4 × IC50 concentrations or 0.1% DMSO (vehicle). As a control, untreated cells were employed. Following a 48 h period, the adherent and floating cells were collected and subjected to a 15-min dark incubation period at 37 °C with 1 μM A.O. After that, the samples were examined by flow cytometry using the PC5.5 channel.
(§2) Following the information obtained with the lead compound and considering the microscopic observations made with these new compounds, we next investigated whether their toxicity was also associated with lysosome targeting. To this end, we evaluated the induction of lysosomal membrane permeabilization (LMP) by flow cytometry, using acridine orange (AO) as probe. This probe allows for an assessment of permeabilization, as its fluorescence decreases upon the release of lysosomal protons. […] The cells that presented decreased AO fluorescence were considered to have permeabilized lysosomes.

MCF7 cells [4] = experiment: Lysosomal membrane permeabilization (acridine orange, flow cytometry), MCF7; format: cell-based, human; details: MCF7, 4 × IC50, 48 h
Protocol: as §1, §2

MCF7 cells [5] = experiment: Annexin V/PI assay (flow cytometry), MCF7; format: cell-based, human; details: MCF7, 2 × IC50 and 4 × IC50, 48 h
Protocol: RKO and MCF7 cells were seeded in 12-well plates at a density of 1 × 10^5 cells/mL. After 24 h, the cells were treated with C9, A36, and A42 at 2 × IC50 and 4 × IC50 concentrations or 0.1% DMSO (vehicle). Untreated cells were used as controls. After 48 h, floating and adherent cells were collected. The cells were resuspended in […] of binding buffer and treated for 15 min in the dark with 5 μL of Annexin V-FITC (Detection Kit-ab14085) and 5 μL of Propidium Iodide (50 μg/mL). The samples were subjected to flow cytometry analysis, PI fluorescence was detected using the ECD-A channel, and Annexin V fluorescence was detected using the FITC-A channel.
One of the main goals of clinical oncology is the development of compounds and treatments capable of selectively eliminating cancer cells. In this sense, we next evaluated the capability of the compounds to induce cell death in both cell lines. For this, we performed a flow cytometry analysis using annexin V-FITC and propidium iodide PI double staining. The conjugation of these two probes allowed for the discrimination of viable (negative for both), early apoptotic (annexin + and PI−), late apoptotic (annexin+ and PI+), and necrotic (annexin− and PI+) cells. […] Both flouting and attached cells were harvested and double stained.

RKO cells [6] = experiment: ROS levels (DHE, flow cytometry), RKO; format: cell-based, human; details: 2 × IC50 and 4 × IC50, 48 h
Protocol: The RKO and MCF7 ROS levels were evaluated through flow cytometry using the dihydroethidium (DHE) probe. RKO and MCF7 cells were seeded in 12-well plates at a density of 1 × 10^5 cells/mL. After 24 h, the cells were treated with the compounds C9, A36, and A42 at 2 × IC50 and 4 × IC50 concentrations or 0.1% DMSO (vehicle). As a control, untreated cells were used. The cells were collected after 48 h of treatment, washed with PBS 1×, and stained for 30 min at 37 °C in the dark using 0.5 μM DHE. The DHE mean fluorescence intensity was analyzed by flow cytometry using the PE-A channel.
Since ROS generation is reported to precede LMP and cell death, and in view of reports showing that some compounds of this family increase intracellular ROS levels under certain circumstances, we also investigated whether C9, A36, and A42 had any effects in this regard.

## CCCNc1cc2oc3cc(=NCC)c(C)cc-3nc2c2ccccc12 [C9]
RKO cells [1]
  IC50: 0.17 ± 0.01 µM
MCF7 cells [2]
  Effect on cell migration (wound closure): more pronounced effect
RKO cells [3]
  Percentage of cells with LMP (permeabilized lysosomes): more than 80%
MCF7 cells [4]
  Percentage of cells with LMP (permeabilized lysosomes): more than 80%
MCF7 cells [5]
  Cell death induction (Annexin V/PI): most powerful compounds
RKO cells [6]
  ROS levels (fluorescence mean of DHE): higher intensity
